Measurements from patent publication US20240226234A1, “WNT5A PEPTIDES FOR THE TREATMENT OF ACUTE M[…]” (W[…], priority 2021, published 2024).
No end group written: not given here. *: point of attachment. For = O=C*

What was measured:
Type in all cases: cell-based, human
HL60 cells [1] = assay: Actin polymerization assay, HL60 cells; conditions: HL60, Foxy-5 100 μM 72 h
Description: (§1) F-actin polymerization was analyzed in treated leukemic cell lines using AlexaFluor 633-labeled phalloidin (A22284, Invitrogen) before and after CXCL12 stimulation. The cells were stimulated with CXCL12 (300 ng/ml; Peprotech) in serum-free media at 37 °C for 30 and 120 seconds. The reaction was stopped by adding 3 volumes of paraformaldehyde (3.7%) at room temperature for 10 min, then washed and permeabilized on ice. Cells were stained with 633-phalloidin (2 mg/mL). Flow cytometric data were analyzed using a FACS flow cytometer (BD) followed by FlowJo software analysis. The F-actin content obtained were normalized calculating the ratio between each stimulated cells-mean fluorescence intensity (MFI) values and the nonstimulated cells MFI from the basal levels of the control cells and expressed as fold change.
(§2) Therefore, we performed a flow cytometry analysis to evaluate whether Foxy-5 treatment would be able to disrupt actin polymerization. Leukemia cell lines were treated with Foxy-5 (100 μM) or vehicle during 72 hours, stimulated with CXCL12 (300 ng/ml) for 30 or 120 seconds, and stained with […] for detection of actin polymerization by flow cytometry. […] Thus, a significant reduction of actin polymerization was shown after Foxy-5 treatment when compared to untreated cells after 30 seconds of CXCL12 induction (P<. 001).

HL60 cells [2] = assay: Transwell chemotaxis assay toward CXCL12, HL60 cells; conditions: HL60, Foxy-5 100 μM 72 h pretreatment, CXCL12 100 ng/mL, 24 h
Description: (§3) Leukemic cell lines, pretreated or not with Foxy-5 (72 hours of stimulation) were tested for chemotaxis in Transwell-based assays for Chemotaxis (6.5 mm diameter, 8 μm pore size; Corning). Polycarbonate membranes were incubated with poly-L-lysine (1 mg/mL) for 1 hour at 37° C. followed by saline buffer washing. Briefly, cells were collected, washed with media containing bovine serum albumin (0.1% BSA; Sigma), and then seeded at a density of 5×10^5 cells into the upper chamber of the transwell. The lower chamber was filled with media containing 0.5% BSA (negative control), media containing 10% FBS (positive control) and media 5 containing 0.5% BSA with CXCL12 (100 ng/ml; Peprotech) (Melo et al., 2014). Following 6 h or 24 h of incubation at 37° C., cells that migrated into the lower chamber were collected, centrifuged, resuspended in saline buffer and counted. The number of migrated cells was expressed as a percentage of the input, i.e., the cells number applied directly to the lower compartment in parallel wells. The migration of cells was normalized to 100%+/−standard deviation (SD) of triplicates (Favaro et al., 2013).
(§4) We investigated whether restoring of WNT5A could enable the modulation CXCL12-induced chemotaxis of leukemia cells. […]

THP1 cells = assay: Transwell chemotaxis assay toward CXCL12, THP1 cells; conditions: THP1, Foxy-5 100 μM 72 h pretreatment, CXCL12 100 ng/mL, 24 h
Description: as §3, §4

K562 cells = assay: Actin polymerization assay, K562 cells; conditions: K562, Foxy-5 100 μM 72 h
Description: as §1, §2

KG1a cells = assay: Autophagy assay (acridine orange), KG1a cells; conditions: 2D culture, 72 h
Description: (§5) A panel of human myeloid leukemia cell lines (HL60, K562, KG1a, THP1 and U937) and HS-5 mesenchymal stromal cells lineage were cultured in Roswell Park Memorial Institute medium-1640 (RPMI; Sigma) containing 10% Fetal Bovine Serum (Gibco), glutamine (2 mM; Sigma), penicillin (100 μg/mL; Sigma), streptomycin (100 μg/mL; Sigma), and amphotericin B (0.25 μg/mL; Gibco). The cells were maintained in a humidified atmosphere at 37° C. and 5% CO2 and the experiments were performed when they reached exponential growth. For the assays, cells were seeded on a 24-well plate and treated or not with Foxy-5 for 72 hours.
(§6) Cells treated with Foxy or with vehicle were collected and acids vesicles were measured by flow cytometry following staining with Acridine Orange (0.01 mg/mL; Sigma). Acquisition of cells was performed on a FACScalibur flow cytometer (BD) and analysis was carried out using the FlowJo software 4.
(§7) As autophagy is required for sustaining leukemia cell growth by induction of ROS production, we measured the levels of acidic granule formation by flow cytometry after Foxy-5 or vehicle treatment. […]

HL60 cells [3] = assay: Autophagy assay (acridine orange), HL60 cells; conditions: HL60, 2D culture, 72 h
Description: as §5, §6, §7

U937 cells = assay: Cell growth assay, U937 cells; conditions: Foxy-5 100 μM, 72 h
Description: as §5
Cells treated with Foxy or with vehicle were collected and cell number was evaluated by manual counting in monoculture and by microscopy with Image J software analysis in 2D culture.
Next, we evaluated the proliferation rates since this process is modulated by ROS. We treated the cells with Foxy-5 (100 μM) or with vehicle (DMSO) during 72 hours, and then cell growth was analyzed by counting the cells in monoculture, manually, or by the Image J software analysis of the 2D cultures. […] Similar results were obtained in the 2D culture system using leukemia cells and HS-5 mesenchymal stromal cells.

[4] = CXCL12 300 ng/ml for 30 seconds
[5] = CXCL12 300 ng/ml for 120 seconds

Substance: Foxy-5: Formylated hexapeptide fragment of WNT5A: MDGCEL (SEQ. ID. NO. 3) with methionine in position 1 as N-formyl methionine; WNT5A-mimicking compound (For-MDGCEL; listed as Homo sapiens)
- F-actin content following CXCL12 stimulation (HL60 cells [1]; [4]): 1.14 fold increase
- F-actin content following CXCL12 stimulation (HL60 cells [1]; [5]): 1.07 fold increase
- CXCL12-induced chemotaxis (migrated cells as percentage of the input, average) (HL60 cells [2]): 4.31%
- CXCL12-induced chemotaxis (migrated cells as percentage of the input, average) (THP1 cells): 11.17%
- F-actin content following CXCL12 stimulation (K562 cells; [4]): 1.37 fold increase
- F-actin content following CXCL12 stimulation (K562 cells; [5]): 1.31 fold increase
- autophagy (acidic granule formation, acridine orange, average) (KG1a cells; Foxy-5 50 μM): 27.30 (range 27.20-29.83) MFI
- autophagy (acidic granule formation, acridine orange, average) (KG1a cells; Foxy-5 100 μM): 21.55 (range 19.05-22.40) MFI
- autophagy (acidic granule formation, acridine orange, average) (HL60 cells [3]; Foxy-5 50 μM): 10.04 (range 7.20-11.93) MFI
- autophagy (acidic granule formation, acridine orange, average) (HL60 cells [3]; Foxy-5 100 μM): 6.60 (range 5.42-6.69) MFI
- reduced cell growth compared to vehicle treated cells (U937 cells; U937, 2D culture with HS-5 stromal cells): 1.72 fold decrease
- reduced cell growth compared to vehicle treated cells (U937 cells; U937, monoculture): 1.75 fold decrease
